In patent US20090042883A1, “ANTITUMOR AGENT” (KYOWA HAKKOKOGYO CO., priority 2005, published 2009):

Columns and labels:
Format in all cases: cell-based
[1] = test system: human chronic myelocytic leukemia K562 cells; experiment: Growth inhibition test on human chronic myelocytic leukemia K562 cells (WST-1, % viability); conditions: test compound 10 μmol/L, 72 hours, cells without test compound = 100%
Protocol: One thousand cells of human chronic myelocytic leukemia K562 were inoculated into each well of a 96-well microplate (manufactured by Nunc Corp.), and using RPMI1640 medium (culture medium) containing 10% fetal calf serum (FCS), preculturing was performed in a 5% carbon dioxide incubator at 37° C. for 24 hours. A dimethyl sulfoxide (DMSO) solution of each test compound prepared in a concentration of 10 mmol/L was diluted with the culture medium to a final concentration of 10 μmol/L, and the diluted solution was added to each well. The individual wells were further cultured in the 5% carbon dioxide incubator at 37° C. for 72 hours. After completion of the culturing, 10 μL of WST-1 {4-[3-(4-Iodophenyl)-2-(4-nitrophenyl)-2H-5-tetrazolio]-1,3-benzene disulfonate} labeled mixture (manufactured by Roche Diagnostic Corp.) was added to each well, and culturing was performed in the 5% carbon dioxide incubator at 37° C. for 2 hours. Using a microplate spectrophotometer (SpectraMax 340PC384; manufactured by Nihon Molecular Devices), the absorbance of each well was measured at 450 nm and 655 nm. The value obtained by subtracting the absorbance at 450 nm from the absorbance at 655 nm (absorbance difference) was calculated for each well. The value for cells not incorporated with a test compound was designated as 100%, and the value at a well not containing cells was designated as 0%. By comparing these values with the absorbance difference obtained at the well in which each test compound was added, the cell viability (% viability) after treatment with the test compound was calculated.

[2] = test system: human chronic lymphocytic leukemia-derived MEC-1 cells; experiment: Growth inhibition test on human chronic lymphocytic leukemia-derived MEC-1 cells (WST-1, % viability); conditions: test compound 10 μmol/L, 72 hours, cells without test compound = 100%
Protocol: (§1) Ten thousand cells of human chronic lymphocytic leukemia-derived MEC-1 were inoculated into each well of a 96-well microplate (manufactured by Nunc Corp.), and using RPMI1640 medium (culture medium) containing 10% FCS, preculturing was performed in a 5% carbon dioxide incubator at 37° C. for 1 hour. A DMSO solution of each test compound prepared in a concentration of 10 mmol/L was diluted with the culture medium to a final concentration of 10 μmol/L, and the diluted solution was added to each well. The individual wells were further cultured in the 5% carbon dioxide incubator at 37° C. for 72 hours. After completion of the culturing, 10 μL of WST-1 labeled mixture (manufactured by Roche Diagnostic Corp.) was added to each well, and culturing was performed in the 5% carbon dioxide incubator at 37° C. for 3 hours. Using a microplate spectrophotometer (M-SPmax 250; manufactured by Molecular Devices Corp.), the absorbance of each well was measured at 450 nm and 655 nm. The value obtained by subtracting the absorbance at 450 nm from the absorbance at 655 nm (absorbance difference) was calculated for each well. The value for cells not incorporated with a test compound was designated as 100%, and the value at a well not containing cells was designated as 0%. By comparing these values with the absorbance difference obtained at the well in which each test compound was added, the cell viability (% viability) after treatment with the test compound was calculated.

[3] = test system: human lung cancer NCI-H596 cells; experiment: Growth inhibition test on human lung cancer NCI-H596 cells (WST-1, % viability); conditions: test compound 10 μmol/L, cells without test compound = 100%
Protocol: as §1, with “Four thousand” for “Ten thousand”, “human lung cancer NCI-H596” for “human chronic lymphocytic leukemia-derived MEC-1”, “for 24 hours.” for “for 1 hour.”, “for 2” for “for 3”, “spectrophotometer (Model 550;” for “spectrophotometer (M-SPmax 250;”, “by Bio-Rad),” for “by Molecular Devices Corp.),”

[4] = test system: human renal cancer OS-RC-2 cells; experiment: Growth inhibition test on human renal cancer OS-RC-2 cells (WST-1, % viability); conditions: test compound 10 μmol/L, 72 hours, cells without test compound = 100%
Protocol: as §1, with “One thousand” for “Ten thousand”, “human renal cancer OS-RC-2” for “human chronic lymphocytic leukemia-derived MEC-1”, “for 24 hours.” for “for 1 hour.”, “for 2” for “for 3”, “spectrophotometer (Model 550;” for “spectrophotometer (M-SPmax 250;”, “by Bio-Rad),” for “by Molecular Devices Corp.),”

SMILES	Viability of tumor cells (% viability), Human chronic myelocytic leukemia K562 cells [1]	Viability of tumor cells (% viability), Human chronic lymphocytic leukemia MEC-1 cells [2]	Viability of tumor cells (% viability), Human lung cancer NCI-H596 cells [3]	Viability of tumor cells (% viability), Human renal cancer OS-RC-2 cells [4]
CCc1c(O)cc(O)c(C(=O)c2ccc(OC)cc2)c1CC(=O)N(CCO)CCOC [Compound 33]	4%	4%	20%	18%
CCc1c(O)cc(O)c(C(=O)c2ccc(OC(C)C)cc2)c1CC(=O)N(CCOC)CCN1CCOCC1 [Compound 134]	4%	6%	17%	21%
CCc1c(O)cc(O)c(C(=O)c2ccc(OC)cc2)c1CC(=O)N1CCN(c2ccccc2C#N)CC1 [Compound 17]	4%	4%	16%	20%
CCc1c(O)cc(O)c(C(=O)c2ccc(OC)cc2)c1CC(=O)N(CCO)Cc1ccco1 [Compound 69]	4%	4%	15%	16%
CCc1c(O)cc(O)c(C(=O)c2ccc(OC)cc2)c1CC(=O)N1CCc2cc(OC)c(OC)cc2C1 [Compound 38]	4%	4%	15%	18%
CCc1c(O)cc(O)c(C(=O)c2ccc(OC(F)(F)F)cc2)c1CC(=O)N(CCO)CCOC [Compound 88]	4%	5%	14%	17%
CCc1c(O)cc(O)c(C(=O)c2ccc(OC)cc2)c1CC(=O)N(C)Cc1cccnc1 [Compound 16]	4%	3%	19%	17%
CCc1c(O)cc(O)c(C(=O)c2ccc(OCCN3CCOCC3)c(OC)c2)c1CC(=O)N(CCOC)CCOC.Cl [Compound 139]	4%	5%	16%	21%
CCc1c(O)cc(O)c(C(=O)c2ccc(OC(C)C)cc2)c1CC(=O)N(CCO)CCOC [Compound 124]	4%	4%	15%	15%
CCc1c(O)cc(O)c(C(=O)c2ccc(OC)cc2)c1CC(=O)N1CCC(CO)CC1 [Compound 61]	5%	5%	25%	25%
CCOc1ccc(C(=O)c2c(O)cc(O)c(CC)c2CC(=O)N(CCO)CCOC)cc1 [Compound 122]	4%	4%	15%	15%
CCc1c(O)cc(O)c(C(=O)c2ccc(OCCCN3CCOCC3)c(OC)c2)c1CC(=O)N(CCOC)CCOC [Compound 149]	4%	5%	14%	20%
CCc1c(O)cc(O)c(C(=O)c2ccc(OC)c(OC)c2)c1CC(=O)N1CCN(c2ccccc2)CC1 [Compound 41]	4%	4%	12%	18%
CCc1c(O)cc(O)c(C(=O)c2ccc(OC)c(OC)c2)c1CC(=O)N(CCO)CCOC [Compound 56]	5%	4%	20%	18%
CCc1c(O)cc(O)c(C(=O)c2ccc(S(C)(=O)=O)cc2)c1CC(=O)N(CCOC)CCOC [Compound 107]	5%	5%	16%	18%
CCc1c(O)cc(O)c(C(=O)c2ccc(OC)cc2)c1CC(=O)N(CCO)CCO [Compound 13]	26%	7%	35%	66%
CCc1c(O)cc(O)c(C(=O)c2ccc(C(F)(F)F)cc2)c1CC(=O)N(CCO)CCOC [Compound 144]	4%	4%	14%	16%
CCc1c(O)cc(O)c(C(=O)c2ccsc2)c1CC(=O)N(CCO)CCOC [Compound 151]	4%	4%	28%	30%
